Reference: patent publication US20250213700A1, “COMPOUNDS, COMPOSITIONS, AND METHODS FOR CELL-SPECIFIC PHARMACOLOGY” (Duke University, priority 2022, published 2025)
Read-outs that look alike come from different tables or passages of the source.

Experiments:
GABAAR [1] = assay: cerebellar slice voltage-clamp, tonic GABAAR current in granule cells; assay type: cell-based, mouse
From the text: (§1) (FIG. 4A) Validation of gabazine.1^DART.2 in cerebellar slice. Top: voltage-clamp schematic. Bottom: tonic GABAAR in granule cells expressing ^+HTP or ^ddHTP. […] Data are mean±SEM, cells normalized to baseline. (FIG. 4B) In vivo delivery of gabazine.1^DART.2 to cerebellar granule cells. Top right: schematic of experimental approach, GCaMP6f granule-cell activity obtained in the absence of sensory stimuli. Top left: example field of view, GCaMP6f signal averaged across trials. Bottom: example calcium traces (ΔF/F) in an awake ^+HTP mouse before (baseline) and after (1 μL of 1 μM gabazine.1^DART.2) infusion. (FIG. 4C) In vivo, 1 μL of 1 μM gabazine.1^DART.2 to ^+HTP mice. Color indicates ΔF/F, each row is one cell before (left) and after (right) gabazine.1^DART.2 infusion. […] (FIG. 4D) In vivo, 1 μL of 1 μM gabazine.1^DART.2 to ^ddHTP mice. Format as in panel C. […] (FIG. 4E) Validation of gabazine.7^DART.2 in VTA slice. Top: evoked-IPSC configuration. […] Data are mean±SEM, cells normalized to baseline. […] Data are mean±SEM, normalized to baseline speed of each animal.
Next, the feasibility of using DART.2 for GABAAR antagonism in live mice was explored. […] Whether this sparsity results from low excitatory drive, or high inhibitory GABAAR tone, has been difficult to address with prior tools. For example, one may attempt to reduce inhibition onto granule cells by silencing local GABA-producing neurons [golgi cells]. However, this would disinhibit local excitatory neurons [unipolar brush cells]. Thus the approach would inadvertently elevate excitatory drive onto granule cells, concomitant with the desired goal of reducing their inhibition, confounding interpretation. […] AAV DIO ^+HTPGPI or AAV DIO ^ddHTPGPI were expressed along with GCaMPxx in xxx-Cre mice; 2p. […] Next, in vivo experiments, using two-photon imaging of granule cells were performed.

cerebellar granule cells = assay: in vivo two-photon GCaMP imaging of cerebellar granule cells; parameters: species or system mouse; settings: local infusion, 1 μL of 1 μM
From the text: as §1
Next, the feasibility of using DART.2 for GABAAR antagonism in live mice was explored. […] Whether this sparsity results from low excitatory drive, or high inhibitory GABAAR tone, has been difficult to address with prior tools. […]

GABAAR [2] = assay: whole-mount retina, GABAAR-mediated evoked IPSC in retinal ganglion cells; assay type: cell-based, mouse; settings: 300 nM, 15 min
Protocol: (FIG. 6A) Viral strategy (top panel). […] Experimental overview (second panel from the top to bottom panel). Top: whole retina; synaptic current is evoked (stim) and recorded (voltage-clamp of dTomato+ RGC), with ionic and pharmaceutical conditions chosen to isolate the AMPAR or GABAAR. A 10 min baseline is followed by 15 min application of 300 nM Rx^DART.2+30 nM Alexa^647.1DART.2. […] (FIG. 6B) CMPDA.2^DART.2 (left). Electropositive spacer (PDB 3RNN). […] AMPAR structural model (middle) (composite of PDB 5WEO, 3RNN, and 1FTL). Cylinder depicts cell membrane. […] YM90K.1^DART.2 (right). Structural model (PDB 1FTL). […] (FIG. 6C) diazepam.1^DART.2 (left). Structural model (PDB 6HUP). […] GABAAR (middle) structural model (composite of PDB 6HUP and 6HUK). […] Structural model (PDB 6HUK).
Preparation of Retina: Mice were intravitreal injected AAV10 HaloTag™-dTomato to eyes. After 8-12 weeks, the mice killed by cervical dislocation. Both eyes were removed and dissected under a stereo-microscope. Retinas were isolated from the eyecups and placed in oxygenated (95% O2/5% CO2) cold-Ames medium (Sigma-Aldrich), supplemented with 21 mM NaHCO3. After the vitreous body was removed, a retina was cut into 3 pieces, leaving each retina piece attached to a filter paper with 2 mm hole by retina ganglion-cell-side-down. The pieces of retina were stored in bubbled Ames solution at room temperature, then transferred to recording chamber with retina ganglion-cell-side-up for recording.
Whole-cell patch-clamp recording: The brain slices or retinas were perfused with bubbled aCSF at 29-30° C. with a 2 ml/min flow rate. Recordings were made by whole cell patch recording techniques using a Multiclamp 700B amplifier (Molecular Devices, Axon Instruments Inc., Union City, CA). The signals were filtered at 10 KHz and acquired using Digitate 1440A and pClamp 10.7 (Molecular Devices). The recording pipettes (4 MΩ-6 MΩ) were filled with internal solutions. For GABAA receptor-mediated evoked inhibitory postsynaptic currents ([…]) recording, the pipettes filled with Cesium Chloride-based internal solution (in mM) 135 CsCl, 2 MgCl2, 0.5 EGTA, 10 HEPES, 4 Mg-ATP, 0.5 Na-GTP, 10 Na2-phosphocreatine, and QX314 (lidocaine N-ethyl bromide), pH adjusted to 7.3 with CsOH (290 mosm). For AMPA-receptor mediated evoked excitatory postsynaptic currents (eEPSCs) recording, the pipette solution contained (in mM) 130 CsMeS, 1 MgCl2, 0.5 EGTA, 10 HEPES, 4 Mg-ATP, 0.5 Na-GTP, 10 Na2-phosphocreatine, and 4 QX314, pH adjusted to 7.3 with CsOH (290 mosm). For experiment of brain slices and retinas, the eIPSCs or eEPSCs were elicited by electrical stimuli at 0.067 Hz in 0.3-ms duration and 150-300-ρA (60-70% maximum responses) stimulation intensity at a holding potential of −70 mV. The stimulating electrode was placed within 60-100 μm from the recording neuron under voltage-clamp mode. GABA-receptor mediated eIPSCs were isolated in the presence of DNQX ([…] AMPAR antagonist) and AP-V ([…] antagonist) in the bath solution. For AMPA-receptor mediated eEPSCs, added picrotoxin ([…], GABAAR antagonist) and AP-V ([…]) to the bath solution.

endogenous GABAARs = assay: all-optical assay of GABAAR antagonism in primary neuronal culture; assay type: cell-based, rat
Protocol: (§2) Cultured neuronal assays: Preparation of hippocampal cultures: Mixed glial and neuronal cultures were prepared from the hippocampus of postnatal day 0 to 1 Sprague-Dawley rat pups. Separate pools of dissociated cells were transfected via electroporation (LONZA, V4SP-3096) with plasmid constructs, and depending on assay directives, either plated individually or mixed with a different pool of electroporated cells after a 10 min recovery period. Cells were cultured on coverslips (Deckglaser) pre-treated with high molecular weight poly-D-lysine (Sigma, P7405; 0.05 mg/mL) in 24-well plates and maintained in NbActiv4 (BrainBits, Nb4-500) at 37 C, 5% CO2. Media was changed by half at DIV3 or 4 and then weekly thereafter; experiments were performed between DIV16 to DIV18.
Gabazine: Dissociated neurons were electroporated with constructs and cultured for 2 weeks. The assay was performed in the same BASE solution as described above, but with the addition of synaptic blockers CPP (NMDAR antagonist; Tocris) and NBQX (AMPAR antagonist; Abcam, ab120046) to isolate GABAR activity, and a small amount of GABA (GABAR agonist; Sigma) to ensure GABAR activity (=GABAR-BASE). […] Instead, a high dose of regular gabazine was used to completely silence any cells that may not have had realized full antagonism by the end of the assay. Imaging alignment, proof-reading and analysis were performed in a similar fashion to the AMPAR assay using MatLab.
It was next focused on blocking the GABAAR, a ubiquitous transducer of synaptic inhibition. […] The structure-activity literature of gabazine, a selective GABAAR antagonist, was explored. The core gabazine pharmacophore includes of a 3-amino, 6-phenoxy-pyridazine ring, with GABA embedded in the 2-position (2 butyric acid). Based on historical, low-potency predecessors of gabazine, a longer GABA moiety (2 pentanoic acid), and methyl substituents (e.g., 5-CH3) were explored (FIG. 2F). For each variant, the 6-phenoxy moiety was modified to make a gabazinealkyne module, which was click-conjugated to DART.2. Several variants were made, including gabazine.1^DART.2 (2 butyric acid, 5-H), gabazine.5DART.2 (2 pentanoic acid, 5-H), and gabazine.7DART.2 (2 pentanoic acid, 5-CH3). An all-optical assay of endogenous GABAARs in primary neuronal culture was then developed. […] Excitatory synapses were blocked, such that opto-stimulation with ChR2 became the only source of neural excitation.

endogenous GABAAR = assay: all-optical assay of GABAAR positive allosteric modulation in primary neuronal culture; assay type: cell-based, rat
Protocol: as §2
Diazepam/Flumazenil: Dissociated neurons were electroporated with constructs and cultured for 2 weeks. The assay was performed in a modified GABAR-BASE, with an increased KCl concentration to enhance neuronal excitability and a lowered GABA level for a baseline. Again, a DRUG plate and three DoseGroups were used as described above for dosing, but no final WASH. […] Imaging alignment, proof-reading and analysis were performed in a similar fashion to the GABAR assay using MatLab.
Next it was sought to extend DART to allosteric modulators. The allosteric binding site of the GABAAR, known to bind several drugs, with effects ranging from negative to positive allosteric modulation was first analyzed. Diazepam represents the prototypic PAM at this site, and is the most clinically significant of the class. Thus, a diazepam analog was synthesized with a short alkyne attached to the amide of the diazepam core; an attachment site known to tolerate substituents and thought from structural inspection of the GABAAR-bound diazepam pose to allow linker access to free solution. Click chemistry was used to assemble the full-length diazepam.1DART.2 and leveraged an all-optical assay of endogenous GABAARs in primary neuronal culture, with ChR2 and GCaMP6s in the same cell.

endogenous AMPARs = assay: all-optical cultured-neuron assay of AMPAR-dependent synaptic transmission; assay type: cell-based, rat; settings: DW=Rx50/HTL50; ddHTP vs +HTP cells, 15 min
Protocol: as §2

COc1cc(CCCCl)ccc1CCOCCNC(=O)c1ccc(CNC(=O)CCOCCOCCOCCOCCOCCOCCOCCOCCOCCOCCOCCOCCOCCOCCOCCOCCOCCOCCOCCOCCOCCOCCOCCOCCOCCOCCOCCOCCOCCOCCOCCOCCOCCOCCOCCOCCn2cc(COCCOCCOCCOCCOCCOCCOCCCCCCOc3ccc(-c4ccc(=N)n(CCCC(=O)O)n4)cc3)nn2)cc1 [gabazine.1DART.2]
tonic GABAAR current, +HTP granule cells (GABAAR [1]; 100 nM): antagonizes the GABAAR in ^+HTP | HTL50 (half-maximal tethering concentration at 15 min) (GABAAR [1]; +HTP cells, tonic GABAAR current, read-out: HTL50 (t=15 m)): ~50 nM | IC50 (GABAAR [1]; read-out: Rx50, ddHTP cells, tonic GABAAR current): ~1000 nM | GCaMP signals, ddHTP mice (cerebellar granule cells): no impact on GCaMP signals | granule cell activity, +HTP mice (cerebellar granule cells): pronounced increase in +HTP granule cell activity | GABAAR evoked IPSC block, +HTP cells (GABAAR [2]): blocked the GABAAR-mediated IPSC | GABAAR evoked IPSC, ddHTP cells (GABAAR [2]): not on ^ddHTP cells | GABAAR evoked IPSC block, +HTP cells (GABAAR [2]; listed as gabazine.1^DART.2): blocked on ^+HTP cells | DW (t=15 m) (endogenous GABAARs; ddHTP vs +HTP cells, 15 min, 15 uM GABA): 500

COc1ccc(-c2ccc(=N)n(CCCC(=O)O)n2)cc1 [gabazine, reference compound]
GABAAR current after subsequent application (GABAAR [1]; traditional gabazine): blocks all GABAAR current | effect on +HTP vs ddHTP cells (endogenous GABAARs; traditional (non-DART) version): equally affected

COc1cc(CCCCl)ccc1CCOCCNC(=O)c1ccc(CNC(=O)CCOCCOCCOCCOCCOCCOCCOCCOCCOCCOCCOCCOCCOCCOCCOCCOCCOCCOCCOCCOCCOCCOCCOCCOCCOCCOCCOCCOCCOCCOCCOCCOCCOCCOCCOCCOCCn2cc(COCCOCCOCCOCCOCCOCCN3C(=O)CN=C(c4ccccc4)c4cc(Cl)ccc43)nn2)cc1 [diazepam.1DART.2, 1-(4-(19-(7-chloro-2-oxo-5-phenyl-2,3-dihydro-1H-benzo[e][1,4]diazepin-1-yl)-2,5,8, 11, 14, 17-hexaoxanonadecyl)-1H-1,2,3-triazol-1-yl)-N-(4-((2-(4-(3-chloropropyl)-2-methoxyphenethoxy)ethyl)carbamoyl)benzyl)-3,6,9,12, 15, 18,21,24,27, 30, 33, 36, 39, 42, 45, 48, 51, 54, 57, 60, 63, 66, 69, 72, 75, 78, 81, 84, 87, 90, 93, 96, 99, 102, 105, 108-hexatriacontaoxaundecahectan-111-amide]
DW (t=15 m) (endogenous GABAAR; Rx50/HTL50): ~750 | EC50 (endogenous GABAAR; read-out: HTL50 (t=15 m), +HTP neurons, 15 min): 40 nM | EC50 (endogenous GABAAR; read-out: Rx50, ddHTP neurons, 5 µM GABA): 30000 nM | GABAAR evoked IPSC integral (total charge transfer) boost, +HTP cells (GABAAR [2]): 2 fold | GABAAR evoked IPSC, ddHTP cells (GABAAR [2]): no effect on ddHTP RGCs | GABAAR-mediated IPSC potentiation, +HTP RGCs (GABAAR [2]): significantly potentiated IPSCs | GABAAR evoked IPSC, ddHTP cells (GABAAR [2]; listed as diazepam.1^DART.2): not ^ddHTP cells

O=C(CCCn1c(=O)c(=O)[nH]c2cc([N+](=O)[O-])c(-n3ccnc3)cc21)NCCOCCOCCOCCOCCOCCOCc1cn(CCOCCOCCOCCOCCOCCOCCOCCOCCOCCOCCOCCOCCOCCOCCOCCOCCOCCOCCOCCOCCOCCOCCOCCOCCOCCOCCOCCOCCOCCOCCOCCOCCOCCOCCOCCOCCC(=O)NCCOCCOCCCCCCCl)nn1 [YM90K.1DART.1, 1-(4-(24-(7-(1H-imidazol-1-yl)-6-nitro-2,3-dioxo-3,4-dihydroquinoxalin-1 (2H)-yl)-21-oxo-2,5,8, 11, 14, 17-hexaoxa-20-azatetracosyl)-1H-1,2,3-triazol-1-yl)-N-(2-(2-((6-chlorohexyl)oxy)ethoxy)ethyl)-3,6,9, 12, 15, 18, 21, 24, 27, 30, 33, 36, 39, 42, 45, 48, 51, 54, 57, 60, 63, 66, 69, 72, 75, 78, 81, 84, 87, 90, 93, 96, 99, 102, 105, 108-hexatriacontaoxaundecahectan-111-amide]
DW (t=15 m) (endogenous AMPARs): 30
